ChEMBL document CHEMBL5512691, “Synthetically Feasible De Novo Molecular Design of Leads Based on a Reinforcement Learning Model: AI-Assisted Discovery of an Anti-IBD Lead Targeting CXCR4” (J Med Chem, 2024)
Values belong to the compound of their own block, whether it stands above or below them. Activity calls are given as the source filed them. The calls are words filed in the database; no cut-off is given here.

Legend:
[1] = target: T1, C-X-C chemokine receptor type 4 (Homo sapiens, UniProt P61073); test: (§1) Competitive binding affinity to CXCR4 (unknown origin) assessed as inhibition of CXCR4 to TN14003 interaction at 10 nM preincubated for 10 mins followed by compound washout and subsequent TN14003 addition for 30 mins prior to incubation under dark condition for 30 mins by DAPI staining based laser scanning confocal microscopic analysis relative to control; design: scale not given: the % may be the effect or the level left
[2] = target: T1, C-X-C chemokine receptor type 4; test: as §1, with “interaction” for “interaction at 10 nM”, “analysis” for “analysis relative to control”
[3] = Half-life in Sprague-Dawley rat at 2 mg/kg, iv measured upto 12 hrs by LC-MS/MS analysis; format: ADME, organism-based; conditions: in vivo
[4] = Tmax in Sprague-Dawley rat at 2 mg/kg, iv measured upto 12 hrs by LC-MS/MS analysis; format: ADME, organism-based; conditions: in vivo
[5] = Cmax in Sprague-Dawley rat at 2 mg/kg, iv measured upto 12 hrs by LC-MS/MS analysis; format: ADME, organism-based; conditions: in vivo
[6] = AUC(0 to t) in Sprague-Dawley rat at 2 mg/kg, iv measured upto 12 hrs by LC-MS/MS analysis; format: ADME, organism-based; conditions: in vivo
[7] = AUC(0 to infinity) in Sprague-Dawley rat at 2 mg/kg, iv measured upto 12 hrs by LC-MS/MS analysis; format: ADME, organism-based; conditions: in vivo
[8] = Clearance in Sprague-Dawley rat at 2 mg/kg, iv measured upto 12 hrs by LC-MS/MS analysis; format: ADME, organism-based; conditions: in vivo
[9] = MRT in Sprague-Dawley rat at 2 mg/kg, iv measured upto 12 hrs by LC-MS/MS analysis; format: ADME, organism-based; conditions: in vivo
[10] = Bioavailability in Sprague-Dawley rat at 20 mg/kg, IG measured upto 12 hrs by LC-MS/MS analysis; format: ADME, organism-based; conditions: in vivo, po
[11] = Half-life in Sprague-Dawley rat at 20 mg/kg, IG measured upto 12 hrs by LC-MS/MS analysis; format: ADME, organism-based; conditions: in vivo, po
[12] = Tmax in Sprague-Dawley rat at 20 mg/kg, IG measured upto 12 hrs by LC-MS/MS analysis; format: ADME, organism-based; conditions: in vivo, po
[13] = Cmax in Sprague-Dawley rat at 20 mg/kg, IG measured upto 12 hrs by LC-MS/MS analysis; format: ADME, organism-based; conditions: in vivo, po
[14] = AUC(0 to t) in Sprague-Dawley rat at 20 mg/kg, IG measured upto 12 hrs by LC-MS/MS analysis; format: ADME, organism-based; conditions: in vivo, po
[15] = AUC(0 to infinity) in Sprague-Dawley rat at 20 mg/kg, IG measured upto 12 hrs by LC-MS/MS analysis; format: ADME, organism-based; conditions: in vivo, po
[16] = Clearance in Sprague-Dawley rat at 20 mg/kg, IG measured upto 12 hrs by LC-MS/MS analysis; format: ADME, organism-based; conditions: in vivo, po
[17] = MRT in Sprague-Dawley rat at 20 mg/kg, IG measured upto 12 hrs by LC-MS/MS analysis; format: ADME, organism-based; conditions: in vivo, po
[18] = system: RAW264.7; test: Inhibition of CXCL-12 induced chemotaxis in mouse RAW264.7 cells incubated for 22 hrs by transwell assay; format: functional
[19] = system: RAW264.7; test: Inhibition of CXCL-12 induced chemotaxis in mouse RAW264.7 cells at 10 nM incubated for 22 hrs by crystal violet staining based transwell assay; format: functional, cell-based
[20] = system: Mus musculus; test: Anti-inflammatory activity in DSS induced C57BL/6 mouse model of colitis assessed as alleviation in body weight loss at 25 mg/kg, IG administered twice daily for 2 weeks; format: functional, organism-based
[21] = system: Mus musculus; test: Anti-inflammatory activity in DSS induced C57BL/6 mouse model of colitis assessed as reduction in DAI score at 25 mg/kg, IG administered twice daily for 2 weeks (reference value: 3); format: functional
[22] = system: Mus musculus; test: Anti-inflammatory activity in DSS induced C57BL/6 mouse model of colitis assessed as inhibition rate at 25 mg/kg, IG administered twice daily for 2 weeks; format: functional; design: scale not given: the % may be the effect or the level left
[23] = system: Mus musculus; test: Anti-inflammatory activity in DSS induced C57BL/6 mouse model of colitis assessed as alleviation in colon edema at 25 mg/kg, IG administered twice daily for 2 weeks; format: functional, organism-based
[24] = system: Mus musculus; test: Anti-inflammatory activity in DSS induced C57BL/6 mouse model of colitis assessed as increase in colon length at 25 mg/kg, IG administered twice daily for 2 weeks; format: functional, organism-based
[25] = system: Mus musculus; test: Anti-inflammatory activity in DSS induced C57BL/6 mouse model of colitis assessed as decrease in number of bleeding points at 25 mg/kg, IG administered twice daily for 2 weeks; format: functional, organism-based
[26] = system: Mus musculus; test: Anti-inflammatory activity in DSS induced C57BL/6 mouse model of colitis assessed as decrease in number of bleeding area at 25 mg/kg, IG administered twice daily for 2 weeks; format: functional, organism-based
[27] = system: Mus musculus; test: Anti-inflammatory activity in DSS induced C57BL/6 mouse model of colitis assessed as decrease in colon MPO level at 25 mg/kg, IG administered twice daily for 2 weeks by microplate reader assay; format: functional, organism-based
[28] = system: Mus musculus; test: Anti-inflammatory activity in DSS induced C57BL/6 mouse model of colitis assessed as decrease in inflammatory track infiltration at 25 mg/kg, IG administered twice daily for 2 weeks by bioluminescence microscopy; format: functional, organism-based
[29] = system: Mus musculus; test: Anti-inflammatory activity in DSS induced C57BL/6 mouse model of colitis assessed as decrease in intestinal track inflammation at 25 mg/kg, IG administered twice daily for 2 weeks by bioluminescence microscopy; format: functional, organism-based
[30] = system: Mus musculus; test: Anti-inflammatory activity in DSS induced C57BL/6 mouse model of colitis assessed as decrease in thickness of colon mucosa at 25 mg/kg, IG administered twice daily for 2 weeks by bioluminescence microscopy; format: functional, organism-based
[31] = system: Mus musculus; test: Anti-inflammatory activity in DSS induced C57BL/6 mouse model of colitis assessed as decrease in inflammatory cell infiltration at 25 mg/kg, IG administered twice daily for 2 weeks by bioluminescence microscopy; format: functional, organism-based
[32] = system: Mus musculus; test: Anti-inflammatory activity in DSS induced C57BL/6 mouse model of colitis assessed as restoration of structural integrity of epithelium at 25 mg/kg, IG administered twice daily for 2 weeks by bioluminescence microscopy; format: functional, organism-based
[33] = system: Mus musculus; test: Anti-inflammatory activity in DSS induced C57BL/6 mouse model of colitis assessed as restoration of number of goblet cells at 25 mg/kg, IG administered twice daily for 2 weeks by bioluminescence microscopy; format: functional, organism-based
[34] = system: Mus musculus; test: Anti-inflammatory activity in DSS induced C57BL/6 mouse model of colitis assessed as restoration of integrity of glands at 25 mg/kg, IG administered twice daily for 2 weeks by bioluminescence microscopy; format: functional, organism-based
[35] = system: Mus musculus; test: Anti-inflammatory activity in DSS induced C57BL/6 mouse model of colitis assessed as decrease in IL-1beta expression at 25 mg/kg, IG administered twice daily for 2 weeks by bioluminescence microscopy; format: functional, organism-based
[36] = system: Mus musculus; test: Anti-inflammatory activity in DSS induced C57BL/6 mouse model of colitis assessed as decrease in IL-6 expression at 25 mg/kg, IG administered twice daily for 2 weeks by bioluminescence microscopy; format: functional, organism-based
[37] = system: Mus musculus; test: Anti-inflammatory activity in DSS induced C57BL/6 mouse model of colitis assessed as decrease in TNF-alpha expression at 25 mg/kg, IG administered twice daily for 2 weeks by bioluminescence microscopy; format: functional, organism-based
[38] = Stability in human plasma assessed as compound remaining measured upto 120 mins by LC-MS analysis; format: ADME, cell-free; conditions: read-out: Stability
[39] = Stability in human plasma assessed as half life measured upto 120 mins by LC-MS analysis; format: ADME, cell-free
[40] = Stability in human liver microsomes assessed as compound remaining measured upto 45 mins in presence of NADPH by LC-MS analysis; format: ADME, Microsome; conditions: read-out: Stability
[41] = Stability in human liver microsomes assessed as half life measured upto 45 mins in presence of NADPH by LC-MS analysis; format: ADME, Microsome
[42] = Volume of distribution in Sprague-Dawley rat at 2 mg/kg, IV measured upto 12 hrs by LC-MS/MS analysis; format: ADME, organism-based; conditions: in vivo
[43] = Volume of distribution in Sprague-Dawley rat at 20 mg/kg, IG measured upto 12 hrs by LC-MS/MS analysis; format: ADME, organism-based; conditions: in vivo, po

T1 sequence (P61073 whole entry): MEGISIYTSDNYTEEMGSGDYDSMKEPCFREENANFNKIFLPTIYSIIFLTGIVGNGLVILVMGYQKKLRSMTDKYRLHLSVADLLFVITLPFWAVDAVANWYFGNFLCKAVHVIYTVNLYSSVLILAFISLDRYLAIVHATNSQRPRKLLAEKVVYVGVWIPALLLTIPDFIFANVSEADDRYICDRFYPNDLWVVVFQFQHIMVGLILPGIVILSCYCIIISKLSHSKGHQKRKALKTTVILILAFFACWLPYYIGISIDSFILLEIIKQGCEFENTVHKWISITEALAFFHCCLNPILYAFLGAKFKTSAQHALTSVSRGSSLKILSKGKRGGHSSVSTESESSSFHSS

Activity [1]: 64.8%
Compound: O=S(=O)(c1ccc(F)c(F)c1)N1CCN(c2ccc3ccccc3n2)CC1

Activity [1]: 62.7%
Compound: CC1CN(C(=O)c2ccccc2C(=O)Nc2ccccc2)CCN1C(=O)c1ccc(F)c(F)c1 (configuration not stated)

Activity [1]: 52.2%
Compound: O=C(c1cnc2ccccc2c1)N1CCN(c2ccccc2F)CC1

Activity [1]: 11.1%
Compound: O=C(NCc1ccccc1-n1cccn1)c1cnc2ccccc2n1

Activity [1]: 61.2%
Compound: O=C(NC1CCN(Cc2ccccc2)CC1)c1ccc(Cl)cc1Cl

Activity [1]: 58.6%
Compound: Fc1ccc(F)c(NCCN2CCN(c3nccc4ccccc34)CC2)c1

Activity [1]: 78.9% | IC50 [2]: 3.2 nM | half-life [3]: 48.6 min | Tmax [4]: 4.8 min | Cmax [5]: 351 ng/mL | AUC(0-t) at 12 h [6]: 330 ng·h/mL | AUC(0-inf) [7]: 340 ng·h/mL | clearance [8]: 99.4 mL/min/kg | MRT [9]: 1.03 h | bioavailability [10]: 91.1% | half-life [11]: 103 min | Tmax [12]: 15 min | Cmax [13]: 1440 ng/mL | AUC(0-t) at 12 h [14]: 3010 ng·h/mL | AUC(0-inf) [15]: 3070 ng·h/mL | CL/F [16]: 109 mL/min/kg | MRT [17]: 2.62 h | remaining at 2 h [38]: 87% | half-life [39]: > 2 h | remaining at 0.75 h [40]: 62% | half-life [41]: 67.5 min | Vd [42]: 6.04 L/kg | Vd [43]: 16161.66 mL/kg
Compound: O=C(c1ccco1)N1CCN(C2CCN(c3ccccc3)CC2)CC1
inhibition (INH) [18]: 79.19% | inhibition [19]: Active | Activity [20]: Active | Activity [21]: 1.4 | Activity [22]: 53.3% | Activity [23]: Active | Activity [24]: Active | Activity [25]: Active | Activity [26]: Active | Activity [27]: Active | Activity [28]: Active | Activity [29]: Active | Activity [30]: Active | Activity [31]: Active | Activity [32]: Active | Activity [33]: Active | Activity [34]: Active | Activity [35]: Active | Activity [36]: Active | Activity [37]: Active

Activity [1]: 38.3%
Compound: COc1ccc(C(=O)N[C@@H]2CCc3[nH]c4ccccc4c3C2)cc1

Activity [1]: 33.7%
Compound: Cc1cccc(NC(=O)N2CCN(c3nccc4ccccc34)CC2)c1

Activity [1]: 40.2%
Compound: O=C(c1cc2ccccc2[nH]1)N1CCN(c2ccc(Cl)cn2)CC1

Activity [1]: 62.9%
Compound: c1cc(CN2CCCNCCNCCCNCC2)ccc1CN1CCCNCCNCCCNCC1 [PLERIXAFOR]
Activity [21]: 1.8 | Activity [22]: 40% | Activity [35]: Active | Activity [36]: Active | Activity [37]: Active

Activity [1]: 51.9%
Compound: Cc1c(C)c2ccc(OCc3ccc(F)c(F)c3)cc2oc1=O

Activity [1]: 67.1% | IC50 [2]: 5.7 nM
Compound: O=C(NC1CCN(Cc2cccnc2)CC1)c1cnc2ccccc2c1
inhibition (INH) [18]: 75.63% | inhibition [19]: Active | Activity [20]: Active | Activity [21]: 2 | Activity [22]: 33.3% | Activity [23]: Active | Activity [24]: Active | Activity [25]: Active | Activity [26]: Active | Activity [27]: Active | Activity [35]: Active | Activity [36]: Active | Activity [37]: Active

Activity [1]: 64.5%
Compound: O=C(c1cnc2ccccc2c1)N1CCC(N2CCCC2)CC1

Activity [1]: 59.1%
Compound: Cc1ccc(CN2CCN(c3nc(N)c4sccc4n3)CC2)cc1

Activity [1]: 53.6%
Compound: O=C(c1cnc2ccccc2c1)N1CCC(N2CCOCC2)CC1

Activity [1]: 55.4%
Compound: O=C(NO)c1ccc(NC(=O)c2ccccc2C(F)(F)F)cc1

Activity [1]: 54.9%
Compound: O=S(=O)(NCc1ccc(-c2ccccc2)cc1)c1cc(F)c(F)cc1F

Activity [1]: 59.2%
Compound: CC(=O)N1CCC(N(Cc2cccc(C)c2O)C(=O)c2cccc3ccccc23)CC1

Activity [1]: 59.5%
Compound: Cc1ccc(C)c(CC(=O)N2CCN(c3ccccc3)CC2)c1

Activity [1]: 64.3%
Compound: Cc1cc(O)cc(C(=O)N2CCN(c3ccc(F)cc3)CC2)c1
